The source of these data is ChEMBL document CHEMBL1201862, “PubChem BioAssay data set” (2004).

Test [1] addresses T1, Orexin/Hypocretin receptor type 1 (Homo sapiens, UniProt O43613).
T1 sequence (O43613 whole entry): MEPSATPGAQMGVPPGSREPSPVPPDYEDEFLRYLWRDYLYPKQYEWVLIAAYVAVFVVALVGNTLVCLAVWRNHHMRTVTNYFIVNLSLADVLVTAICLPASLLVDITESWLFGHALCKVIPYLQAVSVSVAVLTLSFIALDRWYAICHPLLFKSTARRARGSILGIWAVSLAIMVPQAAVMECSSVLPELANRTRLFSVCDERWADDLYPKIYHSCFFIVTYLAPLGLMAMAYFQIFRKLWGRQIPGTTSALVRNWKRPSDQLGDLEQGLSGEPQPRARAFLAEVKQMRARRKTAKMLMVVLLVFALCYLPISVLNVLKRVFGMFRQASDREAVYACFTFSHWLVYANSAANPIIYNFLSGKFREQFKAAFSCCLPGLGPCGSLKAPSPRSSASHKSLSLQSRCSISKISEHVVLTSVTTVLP
The test is described as follows: Fluorescence-based cell-based high throughput dose response assay for antagonists of the orexin 1 receptor (OX1R; HCRTR1). [Related pubchem assays (depositor defined):AID434989, AID435008, AID463079, AID485270, AID492963, AID492964, AID492965, AID493232, AID504717, AID504718]. Format: functional.

A further test deals with CHO-K1. The test is described as follows: Counterscreen for antagonists of the orexin 1 receptor (OX1R; HCRTR1): Homogeneous time resolved fluorescence (HTRF)-based cell-based dose response assay to identify antagonists of the parental CHO-K1 cell line. [Related pubchem assays (depositor defined):AID434989, AID435008, AID463079, AID485270, AID492963, AID492964, AID492965, AID493232, AID504699, AID504701]. Type of test: functional. The settings on record: Cricetulus griseus.

In test [2] the target is T1, Orexin/Hypocretin receptor type 1. The test is described as follows: Homogeneous Time Resolved Fluorescence (HTRF)-based cell-based high throughput dose response assay for antagonists of the orexin 1 receptor (OX1R; HCRTR1). [Related pubchem assays (depositor defined):AID434989, AID435008, AID463079, AID485270, AID492963, AID492964, AID492965, AID493232, AID504717, AID504718]. Type of test: functional. On the technique in general: TR-FRET usually uses a lanthanide donor and a delayed reading to cut background.

Test [3] in a line: Counterscreen for antagonists of the orexin 1 receptor (OX1R; HCRTR1): Fluorescence-based cell-based high throughput dose response assay to identify antagonists of the parental CHO cell line. [Related pubchem assays (depositor defined):AID434989, AID435008, AID463079, AID485270, AID492963, AID492964, AID492965, AID493232, AID504699, AID504701]. Format: functional. On the technique in general: A counterscreen serves to expose hits that act by an unwanted route or on another target.

The target of test [4] is T2, Kappa-type opioid receptor (Homo sapiens, UniProt P41145). Format: functional.
T2 sequence (P41145 whole entry): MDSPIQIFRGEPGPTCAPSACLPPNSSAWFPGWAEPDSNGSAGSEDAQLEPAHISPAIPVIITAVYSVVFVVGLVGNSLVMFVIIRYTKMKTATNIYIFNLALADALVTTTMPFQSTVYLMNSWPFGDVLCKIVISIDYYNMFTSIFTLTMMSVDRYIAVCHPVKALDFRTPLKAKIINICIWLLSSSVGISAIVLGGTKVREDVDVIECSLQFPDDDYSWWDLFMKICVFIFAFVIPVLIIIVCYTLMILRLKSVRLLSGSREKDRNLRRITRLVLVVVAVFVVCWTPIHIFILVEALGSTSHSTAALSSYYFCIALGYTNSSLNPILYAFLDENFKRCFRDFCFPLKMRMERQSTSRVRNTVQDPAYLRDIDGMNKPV
Test [5] has as its target T2, Kappa-type opioid receptor. Type of test: functional. The source holds these as a separate data set.
For test [6], the target named is T3, Delta-type opioid receptor (Homo sapiens, UniProt P41143). The test is described as follows: HTS Image-Based Screen for Antagonists of the DOR Receptor. [Related pubchem assays (depositor defined):AID1777, AID1785, AID1786, AID2133]. Type of test: functional.
T3 sequence (P41143 whole entry): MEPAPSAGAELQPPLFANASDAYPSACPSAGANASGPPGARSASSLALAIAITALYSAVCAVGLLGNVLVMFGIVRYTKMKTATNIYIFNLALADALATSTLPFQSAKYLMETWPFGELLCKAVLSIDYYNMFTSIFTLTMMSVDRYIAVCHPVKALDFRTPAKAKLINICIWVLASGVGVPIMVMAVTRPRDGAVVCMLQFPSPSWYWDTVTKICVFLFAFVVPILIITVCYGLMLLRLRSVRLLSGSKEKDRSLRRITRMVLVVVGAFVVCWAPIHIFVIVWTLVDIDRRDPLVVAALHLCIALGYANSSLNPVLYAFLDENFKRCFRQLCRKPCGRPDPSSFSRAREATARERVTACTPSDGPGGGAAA
For the next test, the target named is Beta-galactosidase (Escherichia coli, UniProt Q8VNN2). Format: functional.
Test [7] deals with T3, Delta-type opioid receptor. The test is described as follows: HTS Image-Based Screen for Agonists of the DOR Receptor. [Related pubchem assays (depositor defined):AID1777, AID1786, AID2133]. Type of test: functional.
The target in the next test is Mu-type opioid receptor (Homo sapiens, UniProt P35372). The test is described as follows: HTS Image-Based Screen for Agonists of the MOR Receptor. [Related pubchem assays (depositor defined):AID1777, AID1785, AID1786, AID2133]. Format: functional.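 Note: imaging of beta-arrestin GFP recruitment into spots after receptor activation.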
Mu-type opioid receptor, sequence (P35372 whole entry): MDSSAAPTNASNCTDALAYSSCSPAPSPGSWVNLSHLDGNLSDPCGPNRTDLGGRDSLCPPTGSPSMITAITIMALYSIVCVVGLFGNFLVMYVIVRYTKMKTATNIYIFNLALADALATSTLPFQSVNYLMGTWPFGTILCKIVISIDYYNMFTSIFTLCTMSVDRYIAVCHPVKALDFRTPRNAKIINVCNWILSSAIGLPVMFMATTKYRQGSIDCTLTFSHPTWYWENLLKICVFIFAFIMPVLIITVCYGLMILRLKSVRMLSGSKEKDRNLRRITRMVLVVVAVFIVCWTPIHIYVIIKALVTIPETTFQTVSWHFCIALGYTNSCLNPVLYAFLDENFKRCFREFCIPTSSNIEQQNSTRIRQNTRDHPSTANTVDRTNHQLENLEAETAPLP
For test [8], the target named is T4, Rac GTPase-activating protein 1 (Homo sapiens, UniProt Q9H0H5).
T4 sequence (Q9H0H5 whole entry): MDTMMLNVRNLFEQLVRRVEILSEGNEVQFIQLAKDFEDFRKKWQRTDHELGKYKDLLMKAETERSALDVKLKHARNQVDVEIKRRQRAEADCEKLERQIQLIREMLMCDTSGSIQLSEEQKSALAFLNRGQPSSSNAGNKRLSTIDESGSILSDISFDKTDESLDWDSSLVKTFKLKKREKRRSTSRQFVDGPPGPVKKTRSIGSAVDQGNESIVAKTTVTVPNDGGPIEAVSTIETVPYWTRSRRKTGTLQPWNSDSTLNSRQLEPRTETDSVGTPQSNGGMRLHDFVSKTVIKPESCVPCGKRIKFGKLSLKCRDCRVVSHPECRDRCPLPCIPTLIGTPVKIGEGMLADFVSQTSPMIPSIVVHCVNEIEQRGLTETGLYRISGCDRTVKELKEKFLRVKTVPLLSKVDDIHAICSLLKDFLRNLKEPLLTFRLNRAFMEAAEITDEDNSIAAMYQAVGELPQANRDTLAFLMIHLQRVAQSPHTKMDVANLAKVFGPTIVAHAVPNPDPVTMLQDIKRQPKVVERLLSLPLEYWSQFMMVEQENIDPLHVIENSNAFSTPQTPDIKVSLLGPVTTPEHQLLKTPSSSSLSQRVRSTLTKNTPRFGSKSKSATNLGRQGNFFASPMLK
The test is described as follows: blockers of MgcRacGAP-driven Rac1 GTP hydrolysis – biochemical, ADP Hunter fluorescence, primary and confirmatory, confirmation (AID 624330). Type of test: functional.

Test [9] deals with E3 ubiquitin-protein ligase Mdm2 (Homo sapiens, UniProt Q00987). The test is described as follows: MDM2-luc reporter signal enhancers, multi-concentration potency testing, MDM2 ubiquitin-protein ligase inhibitor program, whole-cell format, luminescence detection, 384-well microplate (AID 1394).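 Note: MDM2 E3 inhibitors raise luminescence so EC50 is for signal enhancement.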 Format: functional.
For a further test, the target named is Troponin, cardiac muscle (Homo sapiens, UniProt P19429+P45379+P63316). The test is described as follows: Fluorescence-based biochemical high throughput dose response assay for activators of the calcium sensitivity of cardiac Regulated Thin Filaments (RTF). [Related pubchem assays (depositor defined):AID493008, AID493018, AID504382, AID504383]. Type of test: protein-complex assay.

In test [10] the target is T5, Bifunctional protein GlmU (Mycobacterium tuberculosis, UniProt P9WMN3).
T5 sequence (P9WMN3 whole entry): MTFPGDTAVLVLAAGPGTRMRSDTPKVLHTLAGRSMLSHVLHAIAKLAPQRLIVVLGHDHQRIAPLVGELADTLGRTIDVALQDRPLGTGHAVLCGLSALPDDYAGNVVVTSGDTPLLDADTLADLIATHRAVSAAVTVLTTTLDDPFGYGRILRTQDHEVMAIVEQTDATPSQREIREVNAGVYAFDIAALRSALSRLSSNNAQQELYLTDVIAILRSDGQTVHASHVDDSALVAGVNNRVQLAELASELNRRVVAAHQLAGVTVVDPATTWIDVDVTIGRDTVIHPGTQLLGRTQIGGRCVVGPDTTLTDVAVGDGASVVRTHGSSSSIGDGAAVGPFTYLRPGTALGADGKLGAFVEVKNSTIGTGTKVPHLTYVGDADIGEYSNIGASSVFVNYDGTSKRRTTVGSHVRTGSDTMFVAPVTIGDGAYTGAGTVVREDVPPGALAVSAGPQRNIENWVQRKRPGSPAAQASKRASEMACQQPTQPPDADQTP
The test is described as follows: Inhibitors of Mycobacterial Glucosamine-1-phosphate acetyl transferase (GlmU). Secondary screen. Also on record: species or system Mycobacterium tuberculosis H37Rv.

The target in the next test is T6, Protein skinhead-1 (Caenorhabditis elegans, UniProt P34707).
T6 sequence (P34707 whole entry): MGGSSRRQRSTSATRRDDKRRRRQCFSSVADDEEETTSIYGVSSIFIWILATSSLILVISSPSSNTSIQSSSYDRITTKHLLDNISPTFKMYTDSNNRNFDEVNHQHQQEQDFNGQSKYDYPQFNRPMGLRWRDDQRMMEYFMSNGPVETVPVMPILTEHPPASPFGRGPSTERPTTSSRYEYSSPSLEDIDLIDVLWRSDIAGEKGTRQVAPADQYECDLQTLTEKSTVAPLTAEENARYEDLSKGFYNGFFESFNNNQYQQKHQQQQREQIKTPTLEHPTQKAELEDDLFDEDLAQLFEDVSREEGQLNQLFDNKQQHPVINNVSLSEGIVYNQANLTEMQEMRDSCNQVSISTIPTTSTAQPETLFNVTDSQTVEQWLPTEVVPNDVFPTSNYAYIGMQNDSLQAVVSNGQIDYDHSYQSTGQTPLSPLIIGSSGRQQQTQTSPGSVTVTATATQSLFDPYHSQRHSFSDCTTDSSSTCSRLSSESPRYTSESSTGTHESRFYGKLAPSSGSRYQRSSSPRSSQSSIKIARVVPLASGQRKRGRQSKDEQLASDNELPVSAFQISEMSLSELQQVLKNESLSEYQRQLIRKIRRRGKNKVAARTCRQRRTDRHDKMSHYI
Format: functional.

Test [11] concerns the target T7, G-protein coupled receptor 35 (Homo sapiens, UniProt Q9HC97). The test is described as follows: SAR analysis of Agonists of the GPR35 Receptor using an Image-Based Assay - Set 4. [Related pubchem assays (depositor defined):AID2013, AID2026]. Format: functional.
The target in test [12] is T8, Cannabinoid receptor 1 (Homo sapiens, UniProt P21554). The test is described as follows: SAR analysis of antagonists of the Cannabinoid Receptor 1 using an Image-Based Assay - Set 4. [Related pubchem assays (depositor defined):AID2013, AID2026]. Format: functional.
T8 sequence (P21554 whole entry): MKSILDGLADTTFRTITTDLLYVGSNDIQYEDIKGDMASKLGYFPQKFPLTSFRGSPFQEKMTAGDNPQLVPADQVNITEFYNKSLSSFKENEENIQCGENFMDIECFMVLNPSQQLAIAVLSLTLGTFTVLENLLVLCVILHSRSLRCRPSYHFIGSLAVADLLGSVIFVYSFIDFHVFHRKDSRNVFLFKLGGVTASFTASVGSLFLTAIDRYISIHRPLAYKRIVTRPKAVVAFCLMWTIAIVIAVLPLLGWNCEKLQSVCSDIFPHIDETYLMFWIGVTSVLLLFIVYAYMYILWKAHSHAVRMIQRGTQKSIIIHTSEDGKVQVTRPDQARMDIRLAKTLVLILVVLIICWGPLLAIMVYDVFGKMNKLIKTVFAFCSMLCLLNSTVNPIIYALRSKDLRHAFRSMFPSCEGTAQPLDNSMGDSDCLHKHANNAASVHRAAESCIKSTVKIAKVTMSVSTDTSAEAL
For test [13], the target named is T8, Cannabinoid receptor 1. The test is described as follows: SAR analysis of agonists of the Cannabinoid Receptor 1 using an Image-Based Assay - Set 4. [Related pubchem assays (depositor defined):AID2013, AID2026]. Type of test: functional.
Test [14] deals with G-protein coupled receptor 55 (Homo sapiens, UniProt Q9Y2T6). The test is described as follows: SAR Analysis of Selective Antagonists of GPR55 using an Image-Based Assay - Set 4. [Related pubchem assays (depositor defined):AID2013, AID2026]. Format: functional.
G-protein coupled receptor 55, sequence (Q9Y2T6 whole entry): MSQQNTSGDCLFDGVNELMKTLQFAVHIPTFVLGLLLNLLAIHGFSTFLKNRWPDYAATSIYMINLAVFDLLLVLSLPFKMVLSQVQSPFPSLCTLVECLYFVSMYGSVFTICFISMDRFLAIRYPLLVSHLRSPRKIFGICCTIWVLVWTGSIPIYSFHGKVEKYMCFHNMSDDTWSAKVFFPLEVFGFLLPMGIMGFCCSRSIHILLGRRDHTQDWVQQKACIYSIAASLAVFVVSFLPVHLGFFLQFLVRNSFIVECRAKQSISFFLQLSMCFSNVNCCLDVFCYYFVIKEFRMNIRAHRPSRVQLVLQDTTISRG
For test [15], the target named is T9, Cannabinoid receptor 2 (Homo sapiens, UniProt P34972). The test is described as follows: SAR analysis of agonists of the Cannabinoid Receptor 2 using an Image-Based Assay - Set 3. [Related pubchem assays (depositor defined):AID2013, AID2026]. Type of test: functional.
T9 sequence (P34972 whole entry): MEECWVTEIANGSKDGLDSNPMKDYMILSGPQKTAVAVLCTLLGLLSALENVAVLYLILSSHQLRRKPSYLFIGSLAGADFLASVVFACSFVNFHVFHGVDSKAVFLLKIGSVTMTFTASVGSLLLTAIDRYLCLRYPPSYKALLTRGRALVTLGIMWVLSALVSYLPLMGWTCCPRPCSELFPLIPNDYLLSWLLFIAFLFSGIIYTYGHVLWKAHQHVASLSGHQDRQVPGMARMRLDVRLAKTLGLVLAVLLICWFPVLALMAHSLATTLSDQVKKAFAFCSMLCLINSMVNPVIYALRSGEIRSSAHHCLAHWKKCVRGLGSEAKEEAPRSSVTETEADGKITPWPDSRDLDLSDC
The target of test [16] is T9, Cannabinoid receptor 2. The test is described as follows: SAR analysis of antagonists of the Cannabinoid Receptor 2 using an Image-Based Assay - Set 3. [Related pubchem assays (depositor defined):AID2013, AID2026]. Type of test: functional.
Test [17] concerns the target T7, G-protein coupled receptor 35. The test is described as follows: SAR analysis of Antagonists of the GPR35 Receptor using an Image-Based Assay - Set 6. [Related pubchem assays (depositor defined):AID2013, AID2026]. Type of test: functional.
The target of test [18] is Voltage-dependent T-type calcium channel subunit alpha-1H (Homo sapiens, UniProt O95180). The test is described as follows: human CACNA1H calcium influx blockade – cell-based, synthetic library set 2, HEK293 HH8, Fluo-4, SAR follow-up (AID 493023). Format: functional.
Voltage-dependent T-type calcium channel subunit alpha-1H, sequence (O95180 whole entry): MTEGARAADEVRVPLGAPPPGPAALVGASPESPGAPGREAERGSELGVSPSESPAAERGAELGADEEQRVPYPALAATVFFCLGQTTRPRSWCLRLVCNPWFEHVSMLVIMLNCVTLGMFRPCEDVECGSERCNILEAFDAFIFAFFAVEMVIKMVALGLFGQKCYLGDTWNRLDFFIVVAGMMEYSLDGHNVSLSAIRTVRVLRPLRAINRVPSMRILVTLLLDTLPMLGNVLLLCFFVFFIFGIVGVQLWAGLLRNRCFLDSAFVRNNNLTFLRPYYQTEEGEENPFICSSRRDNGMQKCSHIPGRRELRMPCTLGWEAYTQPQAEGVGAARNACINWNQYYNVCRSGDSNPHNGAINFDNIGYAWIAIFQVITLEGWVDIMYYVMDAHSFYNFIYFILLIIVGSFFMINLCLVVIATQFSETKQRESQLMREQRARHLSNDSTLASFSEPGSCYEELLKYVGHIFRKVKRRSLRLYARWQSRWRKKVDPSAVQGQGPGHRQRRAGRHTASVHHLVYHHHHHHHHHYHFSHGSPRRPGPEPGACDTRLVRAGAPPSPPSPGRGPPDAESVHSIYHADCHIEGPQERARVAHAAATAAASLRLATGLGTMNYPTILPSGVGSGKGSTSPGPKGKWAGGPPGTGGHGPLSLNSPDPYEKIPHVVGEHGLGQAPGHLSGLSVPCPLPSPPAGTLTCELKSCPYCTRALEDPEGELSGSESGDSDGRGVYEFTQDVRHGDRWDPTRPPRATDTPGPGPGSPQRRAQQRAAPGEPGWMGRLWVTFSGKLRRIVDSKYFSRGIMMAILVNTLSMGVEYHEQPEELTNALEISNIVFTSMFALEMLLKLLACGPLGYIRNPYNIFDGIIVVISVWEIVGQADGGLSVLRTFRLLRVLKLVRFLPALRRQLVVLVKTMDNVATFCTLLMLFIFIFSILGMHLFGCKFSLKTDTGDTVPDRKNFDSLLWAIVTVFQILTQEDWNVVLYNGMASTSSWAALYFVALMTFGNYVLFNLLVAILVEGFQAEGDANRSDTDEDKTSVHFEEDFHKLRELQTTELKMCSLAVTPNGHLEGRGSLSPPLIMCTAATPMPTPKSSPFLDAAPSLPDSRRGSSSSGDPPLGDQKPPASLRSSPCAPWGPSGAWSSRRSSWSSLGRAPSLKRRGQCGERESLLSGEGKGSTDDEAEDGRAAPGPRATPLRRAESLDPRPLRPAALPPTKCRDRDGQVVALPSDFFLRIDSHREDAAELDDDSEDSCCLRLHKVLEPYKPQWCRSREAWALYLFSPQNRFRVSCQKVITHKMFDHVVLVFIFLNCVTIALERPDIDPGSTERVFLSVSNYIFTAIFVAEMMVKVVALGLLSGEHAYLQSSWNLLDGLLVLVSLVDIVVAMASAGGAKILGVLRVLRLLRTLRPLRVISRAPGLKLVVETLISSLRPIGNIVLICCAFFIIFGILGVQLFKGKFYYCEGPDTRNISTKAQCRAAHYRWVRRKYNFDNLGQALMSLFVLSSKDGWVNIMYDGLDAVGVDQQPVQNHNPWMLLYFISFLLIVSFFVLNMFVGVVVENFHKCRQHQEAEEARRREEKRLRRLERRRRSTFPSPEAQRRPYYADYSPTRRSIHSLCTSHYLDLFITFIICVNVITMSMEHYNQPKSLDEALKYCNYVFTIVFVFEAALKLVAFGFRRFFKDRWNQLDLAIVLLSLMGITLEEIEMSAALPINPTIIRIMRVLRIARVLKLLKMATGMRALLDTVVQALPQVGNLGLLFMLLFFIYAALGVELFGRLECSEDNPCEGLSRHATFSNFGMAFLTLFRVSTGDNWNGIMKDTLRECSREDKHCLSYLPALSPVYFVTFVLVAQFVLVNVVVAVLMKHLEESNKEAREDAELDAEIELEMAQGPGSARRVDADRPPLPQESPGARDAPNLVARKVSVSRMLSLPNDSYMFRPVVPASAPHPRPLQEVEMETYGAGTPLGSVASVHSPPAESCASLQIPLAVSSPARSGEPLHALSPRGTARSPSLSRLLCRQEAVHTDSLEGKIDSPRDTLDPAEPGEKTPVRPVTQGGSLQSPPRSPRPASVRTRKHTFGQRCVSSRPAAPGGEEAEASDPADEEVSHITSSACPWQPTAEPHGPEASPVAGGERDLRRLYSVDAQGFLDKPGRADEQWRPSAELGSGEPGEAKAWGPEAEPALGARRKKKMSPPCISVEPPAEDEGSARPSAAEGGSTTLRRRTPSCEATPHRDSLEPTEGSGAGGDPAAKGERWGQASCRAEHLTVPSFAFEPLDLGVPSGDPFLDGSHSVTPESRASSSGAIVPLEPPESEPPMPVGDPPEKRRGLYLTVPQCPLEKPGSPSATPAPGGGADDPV

The source made the active and inactive calls.

T7 sequence (Q9HC97 whole entry): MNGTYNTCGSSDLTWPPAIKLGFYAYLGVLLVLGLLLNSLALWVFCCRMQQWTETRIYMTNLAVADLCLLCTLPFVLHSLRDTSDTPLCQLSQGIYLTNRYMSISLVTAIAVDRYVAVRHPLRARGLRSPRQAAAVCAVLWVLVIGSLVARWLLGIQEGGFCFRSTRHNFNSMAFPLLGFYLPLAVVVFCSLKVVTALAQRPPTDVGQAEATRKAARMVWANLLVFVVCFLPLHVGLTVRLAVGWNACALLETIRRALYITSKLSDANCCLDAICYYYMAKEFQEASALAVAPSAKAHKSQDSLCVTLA

Take `Oc1cc(/C=C/c2c(F)cccc2Cl)nc2ccccc12`: the IC50 (in general, the concentration needed to halve the response being measured) in [1] was 9.6 µM (active); in the test with CHO-K1, > 66.2 µM (inactive); in [2] it was 3.14 µM (active); in test [3], > 49.7 µM (inactive).
As to `CC(=O)Nc1ccc(NC(=O)C(C)OC(=O)c2ccccc2C(=O)c2ccc(Cl)c([N+](=O)[O-])c2)cc1` (stereo not given), the IC50 is 8.71 µM in test [4], 8.15 µM (active) in [5] and > 32 µM (inactive) in test [6]. The EC50 (usually the midpoint of the concentration-response curve) was > 31.5 µM (inactive) at Beta-galactosidase, > 32 µM (inactive) in test [7] and > 32 µM (inactive) on Mu-type opioid receptor.
For `CCN(CC)c1ccc(/C=C2\C(=O)c3ccc(C(=O)O)cc3C2=O)cc1`, the IC50 is 85.4 µM (active) in test [8], 37.7 µM (active) in test [10] and 23.3 µM (active) on Protein skinhead-1. In addition, the EC50 in [9] was 0.1 µM (active); on Troponin, cardiac muscle, 0.516 µM (active).
For `Cc1nc(N2CCN(C(=O)c3ccncc3)CC2)c2c3c(sc2n1)CC(C)CC3` (stereo not given), the EC50 (in test [11]; on Cannabinoid receptor 1 [13]; on Cannabinoid receptor 2 [15]) was > 32 µM (inactive) throughout. The IC50 is 13.3 µM (inactive) on Cannabinoid receptor 1 [12], > 32 µM (inactive) in test [14], > 32 µM (inactive) at Cannabinoid receptor 2 [16] and > 32 µM (inactive) in [17].
In the case of `Cc1nc(N2CCN(C(=O)c3ccccc3)CC2)c2c3c(sc2n1)CC(C)CC3` (stereo not given), the EC50 was > 32 µM (inactive) in test [11], > 32 µM (inactive) at Cannabinoid receptor 1 [13] and 24.1 µM (inactive) on Cannabinoid receptor 2 [15]. Also, the IC50 on Cannabinoid receptor 1 [12] was 1.68 µM (active); in test [14] it was 21.5 µM (inactive); on Cannabinoid receptor 2 [16] it was > 9.18 µM (active); in test [17] it was > 32 µM (inactive).
`O=C(COc1ccccc1Cl)N[C@H]1CCCN(Cc2ccccc2)C1`: in test [18], the EC50 is 10 µM (active).
